From ChEMBL document CHEMBL4052711, “Synthesis of 4- and 5-arylthiazolinethiones as inhibitors of indoleamine 2,3-dioxygenase” (Bioorg Med Chem Lett, 2017)

How the values were obtained:
[1] = molecular target: T1, Indoleamine 2,3-dioxygenase 1 (Homo sapiens, UniProt P14902); test: Inhibition of human IDO1 at 100 uM pre-incubated for 10 mins before L-Trp as substrate addition and measured after 30 mins by colorimetry
Target sequence in this assay (P14902 whole entry, looked up): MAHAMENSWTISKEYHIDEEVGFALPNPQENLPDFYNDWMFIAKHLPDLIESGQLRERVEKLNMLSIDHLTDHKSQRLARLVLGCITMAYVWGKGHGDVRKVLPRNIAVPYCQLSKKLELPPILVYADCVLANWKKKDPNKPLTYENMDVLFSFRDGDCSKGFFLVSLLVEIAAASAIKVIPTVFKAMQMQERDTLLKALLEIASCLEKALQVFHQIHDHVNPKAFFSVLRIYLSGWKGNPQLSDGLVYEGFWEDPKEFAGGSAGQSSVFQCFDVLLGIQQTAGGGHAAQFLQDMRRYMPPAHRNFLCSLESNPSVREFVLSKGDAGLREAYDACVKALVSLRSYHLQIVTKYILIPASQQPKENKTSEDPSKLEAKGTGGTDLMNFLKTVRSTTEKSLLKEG

[2] = molecular target: T1, Indoleamine 2,3-dioxygenase 1; test: Inhibition of human IDO1 at 10 uM pre-incubated for 10 mins before L-Trp as substrate addition and measured after 30 mins by colorimetry
Target sequence in this assay (P14902 whole entry, looked up): as above

[3] = molecular target: T1, Indoleamine 2,3-dioxygenase 1; test: Inhibition of human IDO1 pre-incubated for 10 mins before L-Trp as substrate addition and measured after 30 mins by colorimetry
Target sequence in this assay (P14902 whole entry): as the sequence (P14902 whole entry, looked up) above

Row | Compound | inhibition [1] [%] | other results
1 | S=c1[nH]c(-c2ccc(Br)cc2)cs1 | 100 | inhibition [2]: 88%; IC50 ([3]; read-out: IC50): 3.4 µM
2 | S=c1[nH]c(-c2cccnc2)cs1 | 48 | –
3 | Sc1nc(-c2ccccc2)cs1 | 76 | inhibition [2]: 35%
4 | Sc1nc(-c2ccc(Cl)cc2)cs1 | 95 | inhibition [2]: 79%; IC50 ([3]; read-out: IC50): 2.6 µM; IC50 ([3]; read-out: pIC50 (converted)): 2.86 µM
5 | FC(F)(F)c1ccc(-c2csc(=S)[nH]2)cc1 | 37 | –
6 | COc1ccc(-c2csc(=S)[nH]2)cc1 | 68 | –
7 | Oc1nc(-c2ccccc2)cs1 | 15 | –
8 | Nc1nc(-c2ccccc2)cs1 | 13 | –
9 | N#Cc1ccc(-c2csc(=S)[nH]2)cc1 | 8 | –
10 | Clc1nc(-c2ccccc2)cs1 | 0.5 | –
11 | Fc1ccc(-c2csc(S)n2)cc1 | 72 | –
12 | Cc1ccc(-c2csc(S)n2)cc1 | 90 | inhibition [2]: 39%; IC50 ([3]; read-out: IC50): 5.9 µM
13 | S=c1[nH]c(-c2ccncc2)cs1 | 21 | –
14 | OCc1cccc(-c2csc(=S)[nH]2)c1 | 16 | –

More lines, main results first:

Row | inhibition [1] [%] | Compound | other results
15 | 53 | COc1ccccc1-c1csc(=S)[nH]1 | –
16 | 8 | O=C(O)c1ccccc1-c1csc(=S)[nH]1 | –
17 | 40 | S=c1[nH]c(-c2cccc(Cl)c2)cs1 | –
18 | 28 | Fc1cccc(-c2csc(=S)[nH]2)c1 | –
19 | 29 | Fc1ccccc1-c1c[nH]c(=S)s1 | –
20 | 81 | S=c1[nH]c(-c2cccc(Br)c2)cs1 | –
21 | 77 | Fc1ccccc1-c1csc(=S)[nH]1 | –
22 | 12 | COc1ccccc1-c1c[nH]c(=S)s1 | –
23 | 15 | Cc1ccc(-c2c[nH]c(=S)s2)cc1 | –
24 | 0 | COc1ccc(-c2c[nH]c(=S)s2)cc1 | –
25 | 48 | S=c1[nH]cc(-c2cccc(Br)c2)s1 | –
26 | 16 | S=c1[nH]cc(-c2ccccc2)s1 | –
27 | 12 | Brc1nc(-c2ccccc2)cs1 | –
